Data published in patent US20230102554A1 (GB002, INC., priority 2019, published 2023).

Legend:
[1] = target: T1, Human PDGFRβ, cytoplasmic domain (GST-PDGFRβ) (Homo sapiens, UniProt P09619); experiment: Human PDGFRβ biochemical inhibition assay (off-chip Mobility Shift Assay)
T1 construct: made in house
Outline: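 GST-tagged cytoplasmic domain (aa 557-1106) from baculovirus was incubated 1 h at room temperature with compound, CSKtide, ATP at Km and Mg²⁺ in HEPES buffer, pH 7.5. Phosphorylated and unphosphorylated peptide were separated by off-chip mobility shift, and the product ratio P/(P+S) gave percent inhibition.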

[2] = target: T2, Human PDGFRα, cytoplasmic domain (GST-PDGFRα) (Homo sapiens, UniProt P16234); experiment: Human PDGFRα biochemical inhibition assay (off-chip Mobility Shift Assay)
T2 construct: made in house
T2 sequence (P16234 550-1089 T674I): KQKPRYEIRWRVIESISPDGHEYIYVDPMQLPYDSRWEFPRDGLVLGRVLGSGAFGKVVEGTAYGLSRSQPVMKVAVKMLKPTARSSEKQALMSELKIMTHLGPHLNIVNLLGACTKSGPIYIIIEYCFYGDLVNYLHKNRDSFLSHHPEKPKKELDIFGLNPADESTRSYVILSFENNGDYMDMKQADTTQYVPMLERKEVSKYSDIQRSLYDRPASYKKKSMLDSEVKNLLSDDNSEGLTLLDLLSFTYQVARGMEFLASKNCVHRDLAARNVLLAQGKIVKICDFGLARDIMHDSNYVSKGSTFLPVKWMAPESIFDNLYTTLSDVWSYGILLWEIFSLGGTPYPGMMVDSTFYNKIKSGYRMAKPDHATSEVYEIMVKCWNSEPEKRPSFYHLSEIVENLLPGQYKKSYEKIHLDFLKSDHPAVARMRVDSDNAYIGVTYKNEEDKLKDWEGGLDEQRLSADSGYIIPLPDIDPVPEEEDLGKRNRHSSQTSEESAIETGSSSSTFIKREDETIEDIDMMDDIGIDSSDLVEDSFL

T1 sequence (P09619 with tags, fused parts or gaps): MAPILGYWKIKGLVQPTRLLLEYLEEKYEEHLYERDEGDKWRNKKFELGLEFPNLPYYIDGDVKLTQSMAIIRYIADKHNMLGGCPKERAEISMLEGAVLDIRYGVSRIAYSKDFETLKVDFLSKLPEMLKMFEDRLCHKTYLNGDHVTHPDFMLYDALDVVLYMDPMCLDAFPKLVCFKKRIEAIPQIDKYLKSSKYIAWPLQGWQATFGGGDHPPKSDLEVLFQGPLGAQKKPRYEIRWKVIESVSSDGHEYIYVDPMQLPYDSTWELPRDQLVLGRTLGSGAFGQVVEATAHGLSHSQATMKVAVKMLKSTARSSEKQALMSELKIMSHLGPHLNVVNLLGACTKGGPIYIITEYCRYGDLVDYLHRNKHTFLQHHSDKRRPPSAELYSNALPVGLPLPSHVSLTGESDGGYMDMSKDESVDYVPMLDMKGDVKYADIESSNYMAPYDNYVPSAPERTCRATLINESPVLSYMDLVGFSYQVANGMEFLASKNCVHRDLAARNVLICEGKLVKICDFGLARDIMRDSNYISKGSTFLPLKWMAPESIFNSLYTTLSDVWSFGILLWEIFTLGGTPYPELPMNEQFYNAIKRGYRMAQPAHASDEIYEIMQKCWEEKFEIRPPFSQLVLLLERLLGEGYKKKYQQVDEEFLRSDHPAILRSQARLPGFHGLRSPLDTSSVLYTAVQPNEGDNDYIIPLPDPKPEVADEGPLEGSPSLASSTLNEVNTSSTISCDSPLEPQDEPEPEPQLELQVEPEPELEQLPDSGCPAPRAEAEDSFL

| IC50 [1] [nM] | IC50 [2] [nM] | Structure (SMILES) |
| --- | --- | --- |
| 300 to 1000 | 300 to 1000 | C[C@H](Nc1cnc2[nH]cc(-c3cnn(C)c3)c2n1)c1cccc(NC(=O)c2cnc(C(F)(F)F)s2)c1 [Compound 582, (S)-N-(3-(1-((7-(1-methyl-1H-pyrazol-4-yl)-5H-pyrrolo[2,3-b]pyrazin-2-yl)amino)ethyl)phenyl)-2-(trifluoromethyl) thiazole-5-carboxamide] |
| ≥ 1000 | < 300 | C[C@H](Nc1cnc2cnn(C)c2n1)c1cccc(NC(=O)c2ccn(C(F)F)n2)c1 [Compound 155, (S)-1-(difluoromethyl)-N-(3-(1-((1-methyl-1H-pyrazolo[3,4-b]pyrazin-6-yl)amino)ethyl)phenyl)-1H-pyrazole-3-carboxamide] |
| < 300 | < 300 | Cc1c[nH]c2ncc(N[C@@H](C)c3cccc(NC(=O)c4cncc(C(F)F)c4)c3)nc12 [Compound 556, (S)-5-(difluoromethyl)-N-(3-(1-((7-methyl-5H-pyrrolo[2,3-6]pyrazin-2-yl)amino)ethyl)phenyl)nicotinamide] |
| < 300 | < 300 | C[C@H](Nc1cnc2cn(CC3CCC3)nc2n1)c1cc(NC(=O)c2cnc(C(F)(F)F)s2)ccc1F [Compound 390, (S)-N-(3-(1-((2-(cyclobutylmethyl)-2H-pyrazolo[3,4-b]pyrazin-6-yl)amino)ethyl)-4-fluorophenyl)-2-(trifluoromethyl)thiazole-5-carboxamide] |
| < 300 | < 300 | CCc1cc(C(=O)Nc2cccc([C@H](C)Nc3cnc4cn(CC)nc4n3)c2)ccc1CN1CCN(C)CC1 [Compound 498, (S)-3-ethyl-N-(3-(1-((2-ethyl-2H-pyrazolo[3,4-b]pyrazin-6-yl)amino)ethyl)phenyl)-4-((4-methylpiperazin-1-yl)methyl) benzamide] |
| ≥ 1000 | 300 to 1000 | CCn1cc2ncc(N[C@@H](C)c3cccc(NC(=O)c4cnc(C5OCCO5)s4)c3)nc2n1 [Compound 400, (S)-2-(1,3-dioxolan-2-yl)-N-(3-(1-((2-ethyl-2H-pyrazolo[3,4-b]pyrazin-6-yl)amino)ethyl)phenyl)thiazole-5-carboxamide] |
| < 300 | < 300 | CCn1cc2ncc(N[C@@H](C)c3cccc(NC(=O)c4ccc(CN5CCCC(F)(F)C5)c(C)c4)c3)nc2n1 [Compound 474, (S)-4-((3,3-difluoropiperidin-1-yl)methyl)-N-(3-(1-((2-ethyl-2H-pyrazolo[3,4-b]pyrazin-6-yl)amino)ethyl)phenyl)-3-methylbenzamide] |
| < 300 | < 300 | CCn1cc2ncc(N[C@@H](C)c3cccc(NC(=O)Nc4ccc(C5CC5)nc4)c3)nc2n1 [Compound 737, (S)-1-(6-cyclopropylpyridin-3-yl)-3-(3-(1-((2-ethyl-2H-pyrazolo[3,4-b]pyrazin-6-yl)amino)ethyl)phenyl)urea] |
| < 300 | < 300 | CCc1cc2ncc(N[C@@H](C)c3cc(NC(=O)c4ccc(C(F)(F)F)nc4)ccc3F)nc2s1 [Compound 620, (S)-N-(3-(1-((6-ethylthieno[2,3-b]pyrazin-3-yl)amino)ethyl)-4-fluorophenyl)-6-(trifluoromethyl)nicotinamide] |
| < 300 | < 300 | COCc1cncc(C(=O)Nc2cccc([C@H](C)Nc3cnc4cnn(C)c4n3)c2)c1 [Compound 112, (S)-5-(methoxymethyl)-N-(3-(1-((1-methyl-1H-pyrazolo[3,4-b]pyrazin-6-yl)amino)ethyl)phenyl)nicotinamide] |
| < 300 | < 300 | CCn1cc2ncc(N[C@@H](C)c3cc(NC(=O)c4cnc(C5CC5)c(C)c4)ccc3F)nc2n1 [Compound 322, (S)-6-cyclopropyl-N-(3-(1-((2-ethyl-2H-pyrazolo[3,4-b]pyrazin-6-yl)amino)ethyl)-4-fluorophenyl)-5-methylnicotinamide] |
| ≥ 1000 | 300 to 1000 | CCn1cc2ncc(N[C@@H](C)c3cccc(NC(=O)c4cncc(F)c4)c3)nc2n1 [Compound 355, (S)-N-(3-(1-((2-ethyl-2H-pyrazolo[3,4-b]pyrazin-6-yl)amino)ethyl)phenyl)-5-fluoronicotinamide] |
| < 300 | < 300 | Cc1cc2ncc(N[C@@H](C)c3cccc(NC(=O)c4ccc(C5CC5)nc4)c3)nc2s1 [Compound 610, (S)-6-cyclopropyl-N-(3-(1-((6-methylthieno[2,3-b]pyrazin-3-yl)amino)ethyl)phenyl) nicotinamide] |
| < 300 | < 300 | CCn1cc2ncc(N[C@@H](C)c3cccc(NC(=O)c4ccc(N5CCOCC5)c(C)c4)c3)nc2n1 [Compound 386, (S)-N-(3-(1-((2-ethyl-2H-pvrazolo[3,4-b]pyrazin-6-yl)amino)ethyl)phenyl)-3-methyl-4-morpholinobenzamide] |
| < 300 | < 300 | Cc1cc(C(=O)Nc2cccc([C@H](C)Nc3cnc4cnn(C)c4n3)c2)cnc1N1CC2(COC2)C1 [Compound 259, (S)-5-methyl-N-(3-(1-((1-methyl-1H-pyrazolo[3,4-b]pyrazin-6-yl)amino)ethyl)phenyl)-6-(2-oxa-6-azaspiro[3.3]heptan-6-yl) nicotinamide] |
| 300 to 1000 | < 300 | CCn1ccc2ncc(N[C@@H](C)c3cccc(NC(=O)c4cncc(C)c4)c3)nc21 [Compound 82, (S)-N-(3-(1-((5-ethyl-5H-pyrrolo[2,3-b]pyrazin-3-yl)amino)ethyl)phenyl)-5-methylnicotinamide] |
| < 300 | < 300 | CCn1cc2ncc(N[C@@H](C)c3cccc(NC(=O)c4ccc(F)c(C)c4)c3)nc2n1 [Compound 330, (S)-N-(3-(1-((2-ethyl-2H-pyrazolo[3,4-b]pyrazin-6-yl)amino)ethyl)phenyl)-4-fluoro-3-methylbenzamide] |
| ≥ 1000 | 300 to 1000 | CCn1cc2ncc(N[C@@H](C)c3cccc(NC(=O)Nc4ccc(NC)nc4)c3)nc2n1 [Compound 738, (S)-1-(3-(1-((2-ethyl-2H-pyrazolo[3,4-b]pyrazin-6-yl)amino)ethyl)phenyl)-3-(6-(methylamino)pyridin-3-yl)urea] |
| 300 to 1000 | 300 to 1000 | CCn1cc2ncc(N[C@@H](C)c3cccc(NC(=O)c4cnc(C)s4)c3)nc2n1 [Compound 294, (S)-N-(3-(1-((2-ethyl-2H-pyrazolo[3,4-b]pyrazin-6-yl)amino)ethyl)phenyl)-2-methylthiazole-5-carboxamide] |
| < 300 | < 300 | COC(=O)c1ccc(C(=O)Nc2cccc([C@H](C)Nc3cnc4cnn(C)c4n3)c2)cc1 [Compound 211, methyl (S)-4-((3-(1-((1-methyl-1H-pyrazolo[3,4-b]pyrazin-6-yl)amino)ethyl)phenyl)carbamoyl) benzoate] |
| < 300 | < 300 | CCn1cc2ncc(N[C@@H](C)c3cccc(NC(=O)c4cnc(OC)c(C)c4)c3)nc2n1 [Compound 290, (S)-N-(3-(1-((2-ethyl-2H-pyrazolo[3,4-b]pyrazin-6-yl)amino)ethyl)phenyl)-6-methoxy-5-methylnicotinamide] |
| < 300 | < 300 | CC(=O)Oc1ccc(C(=O)Nc2cccc([C@H](C)Nc3cnc4cnn(C)c4n3)c2)cc1 [Compound 214, (S)-4-((3-(1-((1-methyl-1H-pyrazolo[3,4-b]pyrazin-6-yl)amino)ethyl)phenyl)carbamoyl) phenyl acetate] |
| < 300 | < 300 | Cc1cncc(C(=O)Nc2cccc([C@H](C)Nc3cnc4ccn(C)c4n3)c2)c1 [Compound 1, (S)-5-methyl-N-(3-(1-((5-methyl-5H-pyrrolo[2,3-b]pyrazin-3-yl)amino)ethyl)phenyl)nicotinamide] |
| 300 to 1000 | < 300 | CCn1cc2ncc(N[C@@H](C)c3cc(NC(=O)Cc4ccc(C5CCC5)cn4)ccc3C)nc2n1 [Compound 669, (S)-2-(5-cyclobutylpyridin-2-yl)-N-(3-(1-((2-ethyl 2H-pyrazolo[3,4-b]pyrazin-6-yl)amino)ethyl)-4-methylphenyl) acetamide] |
| < 300 | < 300 | CCOc1ccc(C(=O)Nc2cccc([C@H](C)Nc3cnc4cnn(C)c4n3)c2)cc1C [Compound 196, (S)-4-ethoxy-3-methyl-N-(3-(1-((1-methyl-1H-pyrazolo[3,4-b]pyrazin-6-yl)amino)ethyl)phenyl)benzamide] |
| < 300 | < 300 | CCn1cnc2ncc(C(=O)Nc3cccc([C@H](C)Nc4cnc5cnn(C)c5n4)c3)cc21 [Compound 265, (S)-1-ethyl-N-(3-(1-((1-methyl-1H-pyrazolo[3,4-b]pyrazin-6-yl)amino)ethyl)phenyl)-1H-imidazo[4,5-b]pyridine-6-carboxamide] |
| < 300 | < 300 | CCn1cc2ncc(N[C@@H](C)c3cc(NC(=O)c4cc(F)c(CN5CC[C@@H](O)C5)c(Cl)c4)ccc3C)nc2n1 [Compound 521, 3-chloro-N-(3-((S)-1-((2-ethyl-2H-pyrazolo[3,4-b]pyrazin-6-yl)amino)ethyl)-4-methylphenyl)-5-fluoro-4-(((R)-3-hydroxypyrrolidin-1-yl)methyl) benzamide] |
| 300 to 1000 | < 300 | Cc1c[nH]c2ncc(N[C@@H](C)c3cccc(NC(=O)c4cc(C(F)(F)F)nn4C)c3)nc12 [Compound 562, (S)-1-methyl-N-(3-(1-((7-methyl-5H-pyrrolo[2,3-b]pyrazin-2-yl)amino)ethyl)phenyl)-3-(trifluoromethyl)-1H-pyrazole-5-carboxamide] |

| Structure (SMILES) | IC50 [1] [nM] | IC50 [2] [nM] |
| --- | --- | --- |
| CCn1cc2ncc(N[C@@H](C)c3cccc(NC(=O)c4ccc(CN5[C@@H]6CC[C@H]5CN(C)C6)c(C)c4)c3)nc2n1 [Compound 475, N-(3-((S)-1-((2-ethyl-2H-pyrazolo[3,4-b]pyrazin-6-yl)amino)ethyl)phenyl)-3-methyl-4-(((1R,5S)-3-methyl-3,8-diazabicyclo[3.2.1]octan-8-yl)methyl)benzamide] | < 300 | < 300 |
